{
  "source": "paper PMC6429200",
  "about": "“Synthesis and Broad Antiviral Activity of Novel 2-aryl-isoindolin-1-ones towards Diverse Enterovirus A71 Clinical Isolates” (Molecules, 2019)",
  "type_in_all_cases": "cell-based, Enterovirus 71 (EV-A71)",
  "key": {"[1]": {"tested_on": "EV-A71 (H strain) VP1 protein", "experiment": "Western blot of viral VP1 protein in infected Vero cells", "conditions": "H strain MOI = 0.1, 1 h infection then A3 for 24 h", "procedure": "(§1) To further confirm the anti-EV-A71 activity, the expression levels of VP1 RNA and protein were determined. Vero cells were infected with the H strain of EV-A71 for 1 h followed by treatment with A3 of various concentrations for another 24 h. […] Meanwhile, the antiviral efficacy of A3 was also tested using viral titer reduction assays.\nVero cells (9 × 10^5 cells/well) were plated into 6-well culture plates for incubation for 16 h. The medium was removed and cells were infected with EV-A71 (H, MOI = 0.1). After 1 h, various concentrations of A3 were supplemented for incubation for another 24 h. The cells were lysed in the M-PER mammalian protein extraction reagent (Thermo, Rockford, IL, USA) containing halt protease inhibitor single-use cocktail (Thermo). The protein concentration was determined by the BCA reagents (Thermo). About 15 μg of proteins was denatured and applied to sodium dodecyl sulfate-polyacrylamide gel electrophoresis (SDS-PAGE). The electrophoresis products were transferred to a polyvinyl idenefluoride (PVDF) film and PVDF membranes were then incubated at room temperature with a specific primary antibody. […]\n(§2) Figure 2 Compound A3 inhibited EV-A71 replication in vitro. […] Intracellular viral VP1 protein (A) and RNA (B) were determined by Western blot and qRT-PCR assays, respectively. […]"}, "[2]": {"tested_on": "EV-A71 strain H", "experiment": "CPE inhibition assay for anti-EV-A71 in Vero cells, H strain", "procedure": "(§3) An in-vitro antiviral assay was established using the Africa monkey kidney cell line Vero which was infected with different EV-A71 clinical isolates (BrCr, H, Shenzhen98 and Jiangsu52). A total of 24 synthetic compounds were initially screened in such an assay to determine their inhibitory effect on virus replication at 3-fold diluted concentrations serial (400~0.18 μM). The 50% effective concentration (EC50) of each compound was calculated according to its inhibitory rate values with the Reed–Muench method. The 50% cytotoxic concentration (CC50) was defined as the concentration that inhibited 50% cellular growth in comparison with the controls. The selectivity index (SI) was calculated as CC50/EC50. […] Generally, the EV-A71 H strain was less sensitive to most of the active compounds as compared to the other virus strains.\n(§4) EV-A71 strain ShenZhen98 (SZ98) was isolated from the throat swab sample of an HFMD case which occurred in 1998 in China. This was kindly provided by Dr. Qi Jin, Institute of Pathogen Biology, Chinese Academy of Medical Science and Peking Union Medical School, Beijing, China. EV-A71 strains BrCr (VR-1775) and H (VR-1432) were purchased from the ATCC. The EV-A71 strain JS52 was a kind gift from Dr. Xiangzhong Ye, Beijing Wantai Biological Pharmacy Enterprise Co., Ltd. EV-A71 were all passaged in Vero cells.\n(§5) The anti-EV-A71 activity of compounds was determined by the CPE inhibition method. Briefly, cells (3 × 10^4 cells/well) were plated into 96-well culture plates for incubation for 24 h. The medium was then removed and cells were infected with EV-A71 with 100TCID50 (50% tissue culture infective doses) in serum-free medium for 1 h at 37 °C. Then, the unbound viruses were removed and various concentrations of compounds were supplemented and incubated for another 48 h. The EC50 was determined by the Reed–Muench method. The selectivity index was calculated as the ratio of CC50/EC50 [15]."}, "[3]": {"tested_on": "EV-A71 (H strain) VP1 RNA", "experiment": "qRT-PCR of VP1 RNA in infected Vero cells", "conditions": "H strain MOI = 0.1, 1 h infection then A3 for 24 h, RT-qPCR", "procedure": "as §1\nVero cells (9 × 10^5cells/well) were plated into 6-well culture plates for incubation for 16 h. The medium was removed and cells were infected with EV-A71 (H, MOI = 0.1). After 1 h, various concentrations of A3 were supplemented and incubated for another 24 h. The total RNA of the infected cells was extracted using the RNeasy Mini kit (QIAGEN) according to the manufacturer’s instructions. […] The RNA expression of EV-A71 VP1 was detected with the sense primer 5′-GATATCCCACATTCGGTGA-3′ and the antisense primer 5′-[…] -3′ targeting a conserved region of the VP1 gene. β-Actin mRNA was detected using the sense primers 5′-TGACGGGGT CACCCACA CTGTGCCCATCTA-3′ and the antisense primer 5′-CTAGAAGCATTTG CGGTGGACG ATG-3′. […] The relative amounts of EV-A71 VP1 mRNA were calculated by the comparative Ct method after normalizing the quantity of β-actin [15].\nas §2"}, "[4]": {"tested_on": "EV-A71 strain ShenZhen98 (SZ98)", "experiment": "CPE inhibition assay for anti-EV-A71 in Vero cells, Shenzhen98 strain", "procedure": "as §3, §4, §5"}, "[5]": {"conditions": "Enterovirus A, EVA71, Vero cells, 100TCID50, 48 h"}},
  "data": [
    {"smiles": "O=C1c2ccccc2CN1c1ccc(Cl)cc1", "note": "[Compound A3, 2-(4-chlorophenyl)isoindolin-1-one]", "values": [
      {"measurement": "viral VP1 protein level", "setting": "[1]", "result": "decreased the levels of viral VP1 protein in a dose-dependent manner"},
      {"measurement": "H SI", "setting": "[2]; CC50/EC50", "result": 168},
      {"measurement": "EC50", "setting": "[2]; [5]", "result": "1.53 ± 0.16", "unit": "µM"},
      {"measurement": "VP1 RNA expression level", "setting": "[3]", "result": "significantly reduced VP1 RNA expression level in a dose-dependent way"},
      {"measurement": "Shenzhen98 SI", "setting": "[4]; CC50/EC50", "result": 199},
      {"measurement": "EC50", "setting": "[4]; [5]", "result": "1.29 ± 0.24", "unit": "µM"}
    ]}
  ]
}
